# Measured values published in US12180187B2, “1-phenyl-5-azinylpyrazolyl-3-oxyalkyl acids and their use for controlling unwanted plant growth” (BAYER AKTIENGESELLSCHAFT, priority 2019, dated 2024).
# “And” between values parts separate entries of the source, which are not always exact repeats. Equal entries are not always repeated.
# What was measured:
# [1] = system: ECHGC; assay: Pre-emergence action at 320 g/ha against ECHGC; type: in vivo, Echinochloa crus-galli; conditions: visual scoring after about 3 weeks vs untreated controls
# In short: (§1)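 Effect rated visually (% vs untreated control) about 3 weeks after pre-emergence spraying of WP/EC formulation onto soil; spray carried 0.5% additive at 600 l/ha water.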
# [2] = system: LOLRI; assay: Pre-emergence action at 320 g/ha against LOLRI; type: in vivo, Lolium rigidum; conditions: visual scoring after about 3 weeks vs untreated controls; for pest or weed control at 320 g/ha: Lolium rigidum, 504 h
# In short: as §1
# [3] = system: MATIN; assay: Pre-emergence action at 320 g/ha against MATIN; type: in vivo, Tripleurospermum inodorum (Matricaria inodora); conditions: visual scoring after about 3 weeks vs untreated controls; for pest or weed control at 320 g/ha: Tripleurospermum inodorum, 504 h
# In short: as §1
# [4] = system: VERPE; assay: Pre-emergence action at 320 g/ha against VERPE; type: in vivo, Veronica persica; conditions: visual scoring after about 3 weeks vs untreated controls; for pest or weed control at 320 g/ha: Veronica persica, 504 h
# In short: as §1
# [5] = system: VIOTR; assay: Pre-emergence action at 320 g/ha against VIOTR; type: in vivo, Viola tricolor; conditions: dosage 320 g/ha; for pest or weed control at 320 g/ha: Viola tricolor, 504 h
# In short: as §1
# [6] = system: VERPE; assay: Post-emergence action against VERPE, 1.28 kg/ha; type: in vivo, Veronica persica; conditions: dosage 1280 g/ha, visual rating about 3 weeks after treatment vs untreated controls (100% = plants died); for pest or weed control at 1280 g/ha: Veronica persica, 504 h
# In short: (§2)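 Foliar application at the one-leaf stage: compound as WP or EC in water with 0.5% additive, sprayed at 600 L/ha. Plants are kept about 3 weeks in the greenhouse, then % herbicidal action is estimated visually (100% = death).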
# [7] = system: ALOMY; assay: Post-emergence action against ALOMY, 320 g/ha; type: in vivo, Alopecurus myosuroides; conditions: dosage 320 g/ha, visual rating about 3 weeks after treatment vs untreated controls (100% = plants died)
# In short: (§3)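 Sow in sandy loam → greenhouse growth 2–3 wk → spray at one-leaf stage (WP/EC, aqueous, +0.5% additive, 600 l/ha) → hold ~3 wk under optimum conditions → visual rating, 0–100% relative to untreated.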
# [8] = system: AMARE; assay: Post-emergence action at 320 g/ha against AMARE; type: in vivo, Amaranthus retroflexus; conditions: visual rating about 3 weeks after treatment vs untreated controls; for pest or weed control at 320 g/ha: Amaranthus retroflexus, 504 h
# In short: as §3
# [9] = system: SETVI; assay: Post-emergence action at 320 g/ha against SETVI; type: in vivo, Setaria viridis; conditions: visual rating about 3 weeks after treatment vs untreated controls
# In short: as §3
# [10] = system: POLCO; assay: Post-emergence action at 320 g/ha against POLCO; type: in vivo, Fallopia convolvulus (Polygonum convolvulus); conditions: visual rating about 3 weeks after treatment vs untreated controls; for pest or weed control at 320 g/ha: Fallopia convolvulus, 504 h
# In short: as §3
# [11] = system: ALOMY; assay: Post-emergence action against ALOMY, 1.28 kg/ha; type: in vivo, Alopecurus myosuroides; conditions: dosage 1280 g/ha, visual rating about 3 weeks after treatment vs untreated controls
# In short: as §2
# [12] = system: DIGSA; assay: Post-emergence action against DIGSA, 1.28 kg/ha; type: in vivo, Digitaria sanguinalis; conditions: dosage 1280 g/ha, visual rating about 3 weeks after treatment vs untreated controls
# In short: as §2
# [13] = system: ABUTH; assay: Post-emergence action against ABUTH, 1.28 kg/ha; type: in vivo, Abutilon theophrasti; conditions: dosage 1280 g/ha, visual rating about 3 weeks after treatment vs untreated controls (100% = plants died)
# In short: as §2
# [14] = system: MATIN; assay: Post-emergence action against MATIN, 1.28 kg/ha; type: in vivo, Tripleurospermum inodorum (Matricaria inodora); conditions: dosage 1280 g/ha, visual rating about 3 weeks after treatment vs untreated controls (100% = plants died)
# In short: as §2
# [15] = system: LOLRI; assay: Post-emergence action against LOLRI, 1.28 kg/ha; type: in vivo, Lolium rigidum; conditions: dosage 1280 g/ha, visual rating about 3 weeks after treatment vs untreated controls
# In short: as §2
# [16] = system: ABUTH; assay: Pre-emergence action against ABUTH, 1280 g/ha; type: in vivo, Abutilon theophrasti; conditions: scored visually after about 3 weeks vs untreated controls (100% = plants have died)
# In short: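 Mono- and dicot weed seeds sown in sandy loam were treated on the covering soil surface with WP or EC formulations plus 0.5% additive at 600 L water/ha. Pots stayed in a greenhouse; damage was scored visually after ~3 weeks as percent versus untreated controls (100% = dead).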
Compound,Pre-emergence action against ECHGC in % [1],pest or weed control at 320 g/ha [2],pest or weed control at 320 g/ha [3],pest or weed control at 320 g/ha [4],pest or weed control at 320 g/ha [5],pest or weed control at 1280 g/ha [6],Post-emergence action against ALOMY [7],Post-emergence action against SETVI in % [9],Pre-emergence action against LOLRI in % [2],Pre-emergence action against MATIN in % [3],Pre-emergence action against VERPE in % [4],Pre-emergence action against VIOTR in % [5],Post-emergence action against ALOMY [11],Post-emergence action against DIGSA [12],Post-emergence action against ABUTH [13],Post-emergence action against VERPE [6],Post-emergence action against AMARE in % [8],Post-emergence action against POLCO in % [10],Post-emergence action against MATIN [14],Post-emergence action against LOLRI [15],further results
"C=CCNC(=O)COc1nn(-c2ccccc2F)c(-c2ccc(F)nc2)c1Br [Example X-001, N-Allyl-2-{[4-bromo-1-(2-fluorophenyl)-5-(6-fluoropyridin-3-yl)-1H-pyrazol-3-yl]oxy}acetamide]",100%,100%,90%,80%,100%,100%,90%,90%,,,,,,,,,,,,,pest or weed control at 320 g/ha [8]: 80%; pest or weed control at 320 g/ha [10]: 80%
COC(=O)CNC(=O)COc1nn(-c2ccccc2F)c(-c2ccc(F)nc2)c1Br [Example X-002],100%,,,,,,100%,90%,100%,100%,100%,100%,90%,100%,90%,90%,100%,90%,,,
CS(=O)(=O)NC(=O)COc1nn(-c2ccccc2F)c(-c2ccc(F)nc2)c1Br [Example X-004],90%,,,,,,100%,90%,100%,90%,100%,100%,100%,100%,,100%,90%,80%,90%,,
CN(C)S(=O)(=O)NC(=O)COc1nn(-c2ccccc2F)c(-c2ccc(F)nc2)c1Br [Example X-005],90%,,,,,,90%,90%,100%,100%,100%,100%,100%,,90%,100%,80%,80%,100%,100%,
"O=C(O)COc1nn(-c2ccccc2F)c(-c2cncnc2)c1Br [VI-007, {[4-Bromo-1-(2-fluorophenyl)-5-(pyrimidin-5-yl)-1H-pyrazol-3-yl]oxy}acetic Acid]",,100%,100%,100%,100%,90%,,,,,,,90%,100%,,,,,90%,,Pre-emergence action against ABUTH [16]: 90%; pest or weed control at 320 g/ha [8]: 80%; pest or weed control at 320 g/ha [10]: 80%
"O=C(O)COc1nn(-c2ccccc2F)c(-c2ccc(F)nc2)c1Br [VII-003, {[4-Bromo-1-(2-fluorophenyl)-5-(6-fluoropyridin-3-yl)-1H-pyrazol-3-yl]oxy}acetic acid]",100%,100%,90%,100%,100%,90%,80%,,,,,,90%,100%,,,,,100%,100%,pest or weed control at 320 g/ha [8]: 90%; pest or weed control at 320 g/ha [10]: 90%
"CCOC(=O)COc1nn(-c2ccccc2F)c(-c2ccc(F)nc2)c1Br [VII-012, Ethyl {[4-bromo-1-(2-fluorophenyl)-5-(6-fluoropyridin-3-yl)-1H-pyrazol-3-yl]oxy}acetate]",100%,90%,90%,100%,100%,90%,90%,100% and 80%,,,,,100%,100%,100%,,,,100% and 90%,100%,pest or weed control at 320 g/ha [8]: 90%; pest or weed control at 320 g/ha [10]: 90%
COC(=O)C(C)Oc1nn(-c2ccccc2)c(-c2ccc(F)nc2)c1Br (centres unmarked) [VII-014],80%,,,,,,90%,100%,100%,,100%,100%,100%,,,90%,90%,80%,,90%,
COC(=O)C(C)Oc1nn(-c2ccccc2)c(-c2cccnc2)c1Cl (centres unmarked) [VII-032],90%,,,,,,90%,80%,100%,90%,100%,100%,,90%,90%,100%,90%,80%,90%,100%,
COC(=O)COc1nn(-c2ccccc2F)c(-c2ccc(F)nc2)c1F [VII-040],90%,,,,,,100%,100%,100%,100%,100%,100%,100%,100%,90%,100%,90%,90%,90%,,
O=C(O)COc1nn(-c2ccccc2F)c(-c2ccnc(F)c2)c1Br [VIII-004],90%,,,,,,90%,80%,90%,90%,100%,90%,,,,90%,90%,80%,90%,100%,
